# Test results taken from patent US20250296959A1, “B7-H3 TARGETING PEPTIDES AND CONSTRUCTS THEREOF” (Mariana Oncology Inc., priority 2024, published 2025).
# Starred links: 1 amine or outer side, 2 acyl side, 3 side chain; linkers in the order of their positions; H or OH if unused. Positions of bridges follow the written chain, without caps; N, C: chain ends. Non-standard residues stand in square brackets, D forms with d. Residues, ends and D or L forms follow the SMILES beside them. *: point of attachment. Ala(piperidin-4-yl) = O=C([C@H](CC1CCN([*:3])CC1)N[*:1])[*:2]; DOTA = O=C(O)CN1CCN(CC(=O)O)CCN(CC(=O)*)CCN(CC(=O)O)CC1; Trp(5-F) = N[C@@H](Cc1c[nH]c2ccc(F)cc12)C(=O)O; 1Nal = N[C@@H](Cc1cccc2ccccc12)C(=O)O; Ala(4-THP) = N[C@@H](CC1CCOCC1)C(=O)O; 4Pal = N[C@@H](Cc1ccncc1)C(=O)O; Cha = N[C@@H](CC1CCCCC1)C(=O)O; Chg = N[C@H](C(=O)O)C1CCCCC1; Tle = CC(C)(C)[C@H](N)C(=O)O; hLeu = CC(C)CC[C@H](N)C(=O)O; αMeK = C[C@](N)(CCCCN)C(=O)O; NMeS = CN[C@@H](CO)C(=O)O
# Molecular target: T1, human 4lg B7-H3 (Homo sapiens, UniProt Q5ZPR3)
# T1 sequence (Q5ZPR3 29-534): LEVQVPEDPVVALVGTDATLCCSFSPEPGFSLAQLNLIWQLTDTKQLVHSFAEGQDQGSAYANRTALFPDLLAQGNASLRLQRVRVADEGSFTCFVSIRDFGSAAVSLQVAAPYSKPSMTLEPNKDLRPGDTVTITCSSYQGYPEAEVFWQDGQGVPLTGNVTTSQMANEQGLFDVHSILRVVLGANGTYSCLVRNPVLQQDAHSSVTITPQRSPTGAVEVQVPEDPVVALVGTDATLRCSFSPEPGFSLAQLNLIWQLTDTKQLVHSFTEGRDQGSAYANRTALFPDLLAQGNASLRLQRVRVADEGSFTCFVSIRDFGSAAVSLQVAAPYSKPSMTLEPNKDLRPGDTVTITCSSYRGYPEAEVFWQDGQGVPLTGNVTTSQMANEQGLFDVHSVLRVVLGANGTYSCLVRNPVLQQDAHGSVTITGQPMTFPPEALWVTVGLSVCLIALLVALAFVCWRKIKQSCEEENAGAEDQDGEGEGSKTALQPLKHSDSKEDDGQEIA
# Assay: Affinity determination by surface plasmon resonance (SPR) to 4Ig B7-H3
# Conditions: SPR KD—25° C., 4Ig B7-H3; 25° C. flow cell temperature
row,Structure (SMILES),Kd [nM]
1,"CC(=O)N[C@@H](CCC(C)C)C(=O)N[C@H](C(=O)N[C@H]1CSSC[C@@H](C(=O)N[C@@H](Cc2c[nH]c3ccc(F)cc23)C(=O)N[C@@H](Cc2ccccc2)C(=O)N(C)[C@@H](CO)C(=O)N[C@H](CCCCNC(=O)CN2CCN(CC(=O)O)CCN(CC(=O)O)CCN(CC(=O)O)CC2)C(N)=O)NC(=O)[C@H](Cc2ccc(O)cc2)NC(=O)[C@H](C(C)C)NC(=O)[C@H](CC(=O)O)NC(=O)[C@H](Cc2ccc(O)cc2)NC(=O)[C@H](CC2CCNCC2)NC(=O)CNC(=O)[C@H](C(C)C)NC1=O)C1CCCCC1 [compound 212, Ac-hLeu-Chg-C-V-G-PipAla-Y-D-V-Y-C-5FW-F-NMeSer-dLys(DOTA)-CONH2] (Ac-[hLeu][Chg]CVG[Ala(piperidin-4-yl)]YDVYC[Trp(5-F)]F[NMeS][dK](DOTA)-NH2; disulfide 3-11)",100 to 300
2,"CC(=O)N[C@@H](CCC(C)C)C(=O)N[C@@H](Cc1ccc(O)cc1)C(=O)N[C@H]1CSSC[C@@H](C(=O)N[C@@H](Cc2c[nH]c3ccc(F)cc23)C(=O)N[C@@H](Cc2ccccc2)C(=O)N[C@H](C(=O)N[C@H](CCCCNC(=O)CN2CCN(CC(=O)O)CCN(CC(=O)O)CCN(CC(=O)O)CC2)C(=O)O)[C@@H](C)O)NC(=O)[C@H](Cc2ccc(O)cc2)NC(=O)[C@H](C(C)C)NC(=O)[C@H](CC(=O)O)NC(=O)[C@H](CC2CCOCC2)NC(=O)[C@](C)(CCCCN)NC(=O)CNC(=O)[C@H](C(C)(C)C)NC1=O [compound 353, Ac-hLeu-Y-C-Tbg-G-aMeLys-ThpA-D-V-Y-C-5FW-F-Thr-dLys(DOTA)-COOH] (Ac-[hLeu]YC[Tle]G[αMeK][Ala(4-THP)]DVYC[Trp(5-F)]FT[dK](DOTA)-OH; disulfide 3-11)",100 to 300
3,"CC(=O)N[C@@H](CCC(C)C)C(=O)N[C@@H](Cc1ccc(O)cc1)C(=O)N[C@H]1CSSC[C@@H](C(=O)N[C@@H](Cc2cccc3ccccc23)C(=O)N[C@@H](Cc2ccccc2)C(=O)N(C)[C@@H](CO)C(=O)N[C@H](CCCCNC(=O)CN2CCN(CC(=O)O)CCN(CC(=O)O)CCN(CC(=O)O)CC2)C(N)=O)NC(=O)[C@H](CC2CCCCC2)NC(=O)[C@H](C(C)C)NC(=O)[C@H](CC(=O)O)NC(=O)[C@H](Cc2ccncc2)NC(=O)[C@H](CCCCN)NC(=O)CNC(=O)[C@H](C(C)(C)C)NC1=O [compound 220, Ac-hLeu-Y-C-Tbg-G-K-4PyA-D-V-Cha-C-1Nal-F-NMeSer-dLys(DOTA)-CONH2] (Ac-[hLeu]YC[Tle]GK[4Pal]DV[Cha]C[1Nal]F[NMeS][dK](DOTA)-NH2; disulfide 3-11)",10 to 100

# Second part, the compound after the results:
row,Kd [nM],Structure (SMILES)
1,< 1,"CC(=O)N[C@@H](CCC(C)C)C(=O)N[C@@H](Cc1ccc(O)cc1)C(=O)N[C@H]1CSSC[C@@H](C(=O)N[C@@H](Cc2c[nH]c3ccc(F)cc23)C(=O)N[C@@H](Cc2ccccc2)C(=O)N[C@H](C(=O)N[C@H](CCCCNC(=O)CN2CCN(CC(=O)O)CCN(CC(=O)O)CCN(CC(=O)O)CC2)C(=O)O)[C@@H](C)O)NC(=O)[C@H](Cc2ccc(O)cc2)NC(=O)[C@H](C(C)C)NC(=O)[C@H](CC(=O)O)NC(=O)[C@H](CC2CCOCC2)NC(=O)[C@H](CCCCN)NC(=O)CNC(=O)[C@H](C(C)C)NC1=O [compound 331, Ac-hLeu-Y-C-V-G-K-ThpA-D-V-Y-C-5FW-F-Thr-dLys(DOTA)-COOH] (Ac-[hLeu]YCVGK[Ala(4-THP)]DVYC[Trp(5-F)]FT[dK](DOTA)-OH; disulfide 3-11)"
2,10 to 100,"CC(=O)N[C@@H](CCC(C)C)C(=O)N[C@@H](Cc1ccc(O)cc1)C(=O)N[C@H]1CSSC[C@@H](C(=O)N[C@@H](Cc2c[nH]c3ccc(F)cc23)C(=O)N[C@@H](Cc2ccccc2)C(=O)N[C@@H](C(=O)N[C@H](CCCCNC(=O)CN2CCN(CC(=O)O)CCN(CC(=O)O)CCN(CC(=O)O)CC2)C(N)=O)[C@H](C)O)NC(=O)[C@H](Cc2ccc(O)cc2)NC(=O)[C@H](C(C)C)NC(=O)[C@H](CC(=O)O)NC(=O)[C@H](Cc2ccc(O)cc2)NC(=O)[C@H](CCCCN)NC(=O)CNC(=O)[C@H](C(C)C)NC1=O [compound 163, Ac-hLeu-Y-C-V-G-K-Y-D-V-Y-C-5FW-F-dThr-dLys(DOTA)-CONH2] (Ac-[hLeu]YCVGKYDVYC[Trp(5-F)]F[dT][dK](DOTA)-NH2; disulfide 3-11)"
